The source of these data is ChEMBL document CHEMBL4043168, “The design and SAR of a novel series of 2-aminopyridine based LRRK2 inhibitors” (Bioorg Med Chem Lett, 2017).

The target of assay [1] is Serine/threonine-protein kinase 25 (Homo sapiens) (UniProt O00506). In words: Inhibition of YSK1 conserved Lys2 (DIKAANVLLSEQGDVK) in human PBMC at 0.1 uM.
Assay [2] concerns the target Serine/threonine-protein kinase Chk2 (Homo sapiens) (UniProt O96017). In words: Inhibition of CHK2 labeling at conserved Lys1 (VAIKIISK) in human PBMC at 0.1 uM.
The target in assay [3] is Mitogen-activated protein kinase kinase kinase 2 (Homo sapiens) (UniProt Q9Y2U5). In words: Inhibition of MAP3K2 conserved Lys2 (DIKGANILR) in human PBMC at 1 uM.
In assay [4] the target is T1, Tyrosine-protein kinase JAK3 (Homo sapiens) (UniProt P52333).
T1 sequence (whole entry): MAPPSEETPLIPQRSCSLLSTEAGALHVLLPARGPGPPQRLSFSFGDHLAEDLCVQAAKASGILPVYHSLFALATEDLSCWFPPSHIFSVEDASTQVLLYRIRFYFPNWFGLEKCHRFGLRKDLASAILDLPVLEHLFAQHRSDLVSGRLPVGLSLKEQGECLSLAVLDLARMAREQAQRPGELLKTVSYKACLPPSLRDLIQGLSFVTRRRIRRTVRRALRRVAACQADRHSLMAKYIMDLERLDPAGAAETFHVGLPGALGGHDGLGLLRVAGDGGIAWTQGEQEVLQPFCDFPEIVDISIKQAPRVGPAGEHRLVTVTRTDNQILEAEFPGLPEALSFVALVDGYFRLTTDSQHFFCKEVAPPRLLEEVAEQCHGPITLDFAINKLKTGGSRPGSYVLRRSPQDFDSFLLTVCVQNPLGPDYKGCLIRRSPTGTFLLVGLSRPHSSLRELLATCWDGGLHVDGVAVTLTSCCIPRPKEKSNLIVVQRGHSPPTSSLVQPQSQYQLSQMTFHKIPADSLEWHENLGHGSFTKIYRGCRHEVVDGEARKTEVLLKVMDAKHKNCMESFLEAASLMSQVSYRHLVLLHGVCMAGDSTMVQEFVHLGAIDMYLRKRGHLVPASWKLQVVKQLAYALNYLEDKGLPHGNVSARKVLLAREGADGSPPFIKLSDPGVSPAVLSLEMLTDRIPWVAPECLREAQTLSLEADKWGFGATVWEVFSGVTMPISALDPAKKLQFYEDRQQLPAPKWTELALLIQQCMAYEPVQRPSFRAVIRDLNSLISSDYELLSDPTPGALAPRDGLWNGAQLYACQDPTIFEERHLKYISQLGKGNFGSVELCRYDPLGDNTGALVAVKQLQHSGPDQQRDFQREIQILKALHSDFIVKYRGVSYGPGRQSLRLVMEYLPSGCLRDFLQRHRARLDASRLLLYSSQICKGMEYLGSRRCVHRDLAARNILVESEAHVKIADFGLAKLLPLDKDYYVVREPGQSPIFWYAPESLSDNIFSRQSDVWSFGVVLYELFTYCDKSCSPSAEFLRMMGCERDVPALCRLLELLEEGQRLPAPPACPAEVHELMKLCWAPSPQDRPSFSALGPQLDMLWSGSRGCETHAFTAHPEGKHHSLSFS
As to the kind of experiment: Inhibition of JAK3 domain2 conserved Lys1 (YDPLGDNTGALVAVKQLQHSGPDQQR) in human PBMC at 0.1 uM.

Assay [5] deals with Tyrosine-protein kinase Yes (Homo sapiens) (UniProt P07947). As to the kind of experiment: Inhibition of YES activation Loop (QGAKFPIKWTAPEAALYGR) in human PBMC at 1 uM.
Sequence of Tyrosine-protein kinase Yes (Homo sapiens) (P07947 2-543 limits assumed): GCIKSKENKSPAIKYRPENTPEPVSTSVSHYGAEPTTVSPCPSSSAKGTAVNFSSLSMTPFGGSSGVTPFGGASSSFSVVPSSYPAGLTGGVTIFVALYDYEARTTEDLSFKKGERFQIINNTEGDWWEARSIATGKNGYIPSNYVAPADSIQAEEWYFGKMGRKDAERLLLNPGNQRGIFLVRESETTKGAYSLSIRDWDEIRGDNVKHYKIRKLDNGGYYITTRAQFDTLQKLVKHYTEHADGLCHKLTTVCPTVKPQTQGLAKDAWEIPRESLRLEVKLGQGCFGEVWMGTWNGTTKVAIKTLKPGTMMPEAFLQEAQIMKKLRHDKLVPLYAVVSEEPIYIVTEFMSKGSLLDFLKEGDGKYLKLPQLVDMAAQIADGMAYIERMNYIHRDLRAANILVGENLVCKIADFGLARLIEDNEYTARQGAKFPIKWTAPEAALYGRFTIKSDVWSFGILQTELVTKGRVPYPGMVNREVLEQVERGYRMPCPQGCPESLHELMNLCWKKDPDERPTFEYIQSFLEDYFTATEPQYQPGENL
Assay [6] addresses Mitogen-activated protein kinase kinase kinase 1 (Homo sapiens) (UniProt Q13233). In words: Inhibition of MAP3K1 conserved Lys2 (DVKGANLLIDSTGQR) in human PBMC at 0.1 uM.
Assay [7] concerns the target Serine/threonine-protein kinase/endoribonuclease IRE1 (Homo sapiens) (UniProt O75460). In words: Inhibition of IRE1 conserved Lys2 (DLKPHNILISMPNAHGK) in human PBMC at 1 uM.
For assay [8], the target named is Ribosomal protein S6 kinase alpha-4 (Homo sapiens) (UniProt O75676). As to the kind of experiment: Inhibition of MSK2 domain1 conserved Lys2 (DIKLENILLDSNGHVVLTDFGLSK) in human PBMC at 1 uM.
Sequence of Ribosomal protein S6 kinase alpha-4 (Homo sapiens) (O75676 whole entry, looked up, the tested form may be a part): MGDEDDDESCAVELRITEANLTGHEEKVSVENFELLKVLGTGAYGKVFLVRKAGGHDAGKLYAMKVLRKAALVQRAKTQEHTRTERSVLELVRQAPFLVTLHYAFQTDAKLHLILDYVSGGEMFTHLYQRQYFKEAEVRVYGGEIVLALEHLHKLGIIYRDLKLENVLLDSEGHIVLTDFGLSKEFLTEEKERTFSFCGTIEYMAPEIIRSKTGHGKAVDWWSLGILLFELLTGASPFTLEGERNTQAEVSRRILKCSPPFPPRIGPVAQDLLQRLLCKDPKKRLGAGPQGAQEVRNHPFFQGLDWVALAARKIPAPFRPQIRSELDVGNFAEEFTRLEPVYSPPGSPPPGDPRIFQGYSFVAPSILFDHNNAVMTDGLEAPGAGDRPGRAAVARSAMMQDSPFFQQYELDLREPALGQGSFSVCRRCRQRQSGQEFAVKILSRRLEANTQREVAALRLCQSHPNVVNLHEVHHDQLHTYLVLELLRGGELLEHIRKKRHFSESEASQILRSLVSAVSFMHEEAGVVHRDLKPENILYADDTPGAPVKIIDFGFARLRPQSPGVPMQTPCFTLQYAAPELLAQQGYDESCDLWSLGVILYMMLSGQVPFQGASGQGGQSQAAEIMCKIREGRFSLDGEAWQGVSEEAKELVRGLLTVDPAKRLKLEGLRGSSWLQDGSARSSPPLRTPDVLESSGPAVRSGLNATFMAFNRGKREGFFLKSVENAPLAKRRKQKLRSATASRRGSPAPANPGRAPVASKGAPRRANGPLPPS
Assay [9] concerns the target T2, Mitogen-activated protein kinase kinase kinase 6 (Homo sapiens) (UniProt O95382).
T2 sequence (whole entry): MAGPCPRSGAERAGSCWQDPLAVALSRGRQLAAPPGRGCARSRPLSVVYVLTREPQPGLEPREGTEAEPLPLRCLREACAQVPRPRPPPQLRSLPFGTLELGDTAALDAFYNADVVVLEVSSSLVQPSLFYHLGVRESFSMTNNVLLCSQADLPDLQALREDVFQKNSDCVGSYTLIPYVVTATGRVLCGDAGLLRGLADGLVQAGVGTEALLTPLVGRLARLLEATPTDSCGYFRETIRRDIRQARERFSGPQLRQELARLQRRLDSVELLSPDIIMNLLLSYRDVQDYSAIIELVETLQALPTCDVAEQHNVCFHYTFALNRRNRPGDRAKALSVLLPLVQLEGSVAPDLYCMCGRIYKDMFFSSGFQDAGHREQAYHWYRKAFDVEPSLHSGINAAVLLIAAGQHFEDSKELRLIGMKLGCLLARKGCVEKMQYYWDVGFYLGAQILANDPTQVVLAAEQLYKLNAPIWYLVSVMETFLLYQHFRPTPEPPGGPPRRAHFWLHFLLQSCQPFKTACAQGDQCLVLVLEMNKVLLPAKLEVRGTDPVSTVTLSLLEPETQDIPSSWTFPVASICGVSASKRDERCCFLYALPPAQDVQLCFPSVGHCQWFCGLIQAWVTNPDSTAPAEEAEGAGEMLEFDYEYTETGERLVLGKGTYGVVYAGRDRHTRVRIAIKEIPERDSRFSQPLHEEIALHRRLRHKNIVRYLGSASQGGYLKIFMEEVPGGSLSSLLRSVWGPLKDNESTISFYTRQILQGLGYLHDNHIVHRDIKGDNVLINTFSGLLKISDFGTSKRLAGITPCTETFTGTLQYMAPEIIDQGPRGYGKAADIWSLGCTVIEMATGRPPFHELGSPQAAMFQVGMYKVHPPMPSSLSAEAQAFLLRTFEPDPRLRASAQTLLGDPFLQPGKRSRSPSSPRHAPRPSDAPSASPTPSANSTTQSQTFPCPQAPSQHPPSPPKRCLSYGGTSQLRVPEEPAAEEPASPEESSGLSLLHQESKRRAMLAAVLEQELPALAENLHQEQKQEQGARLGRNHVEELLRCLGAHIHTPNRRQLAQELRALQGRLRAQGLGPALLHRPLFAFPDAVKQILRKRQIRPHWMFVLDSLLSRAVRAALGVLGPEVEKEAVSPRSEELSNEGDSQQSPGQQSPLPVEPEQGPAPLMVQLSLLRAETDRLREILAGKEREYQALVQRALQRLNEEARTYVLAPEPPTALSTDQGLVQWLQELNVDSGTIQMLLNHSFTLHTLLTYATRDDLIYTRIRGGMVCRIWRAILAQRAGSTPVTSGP
As to the kind of experiment: Inhibition of MAP3K6 conserved Lys1 (IAIKEIPER) in human PBMC at 0.1 uM.

Sequence of Serine/threonine-protein kinase Chk2 (Homo sapiens) (O96017 whole entry): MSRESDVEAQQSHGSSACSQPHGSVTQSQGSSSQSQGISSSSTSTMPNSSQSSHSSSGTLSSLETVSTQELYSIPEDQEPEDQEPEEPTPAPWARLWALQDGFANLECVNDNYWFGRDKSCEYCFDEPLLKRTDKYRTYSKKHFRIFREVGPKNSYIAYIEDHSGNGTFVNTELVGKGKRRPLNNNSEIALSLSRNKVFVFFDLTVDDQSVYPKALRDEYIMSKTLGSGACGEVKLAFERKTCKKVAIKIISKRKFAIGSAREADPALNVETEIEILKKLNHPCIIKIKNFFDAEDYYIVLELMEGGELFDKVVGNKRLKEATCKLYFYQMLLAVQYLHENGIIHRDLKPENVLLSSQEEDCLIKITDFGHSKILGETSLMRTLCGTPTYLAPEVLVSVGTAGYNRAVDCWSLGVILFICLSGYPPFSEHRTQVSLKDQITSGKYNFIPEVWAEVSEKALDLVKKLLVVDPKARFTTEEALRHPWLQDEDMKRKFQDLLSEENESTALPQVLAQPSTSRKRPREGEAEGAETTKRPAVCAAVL
Sequence of Serine/threonine-protein kinase 25 (Homo sapiens) (O00506 whole entry, looked up): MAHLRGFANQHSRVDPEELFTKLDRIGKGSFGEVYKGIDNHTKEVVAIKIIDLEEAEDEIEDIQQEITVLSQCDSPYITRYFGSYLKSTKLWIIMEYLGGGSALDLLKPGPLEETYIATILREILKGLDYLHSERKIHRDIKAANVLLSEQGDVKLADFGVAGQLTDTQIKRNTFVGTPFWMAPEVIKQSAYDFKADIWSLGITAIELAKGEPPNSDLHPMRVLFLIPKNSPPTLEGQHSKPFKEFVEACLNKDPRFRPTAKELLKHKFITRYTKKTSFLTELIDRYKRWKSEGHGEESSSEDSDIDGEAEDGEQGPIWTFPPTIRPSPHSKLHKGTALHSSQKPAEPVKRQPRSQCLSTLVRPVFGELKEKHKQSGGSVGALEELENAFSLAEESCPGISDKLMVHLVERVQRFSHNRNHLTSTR
Sequence of Serine/threonine-protein kinase/endoribonuclease IRE1 (Homo sapiens) (O75460 19-977 limits assumed): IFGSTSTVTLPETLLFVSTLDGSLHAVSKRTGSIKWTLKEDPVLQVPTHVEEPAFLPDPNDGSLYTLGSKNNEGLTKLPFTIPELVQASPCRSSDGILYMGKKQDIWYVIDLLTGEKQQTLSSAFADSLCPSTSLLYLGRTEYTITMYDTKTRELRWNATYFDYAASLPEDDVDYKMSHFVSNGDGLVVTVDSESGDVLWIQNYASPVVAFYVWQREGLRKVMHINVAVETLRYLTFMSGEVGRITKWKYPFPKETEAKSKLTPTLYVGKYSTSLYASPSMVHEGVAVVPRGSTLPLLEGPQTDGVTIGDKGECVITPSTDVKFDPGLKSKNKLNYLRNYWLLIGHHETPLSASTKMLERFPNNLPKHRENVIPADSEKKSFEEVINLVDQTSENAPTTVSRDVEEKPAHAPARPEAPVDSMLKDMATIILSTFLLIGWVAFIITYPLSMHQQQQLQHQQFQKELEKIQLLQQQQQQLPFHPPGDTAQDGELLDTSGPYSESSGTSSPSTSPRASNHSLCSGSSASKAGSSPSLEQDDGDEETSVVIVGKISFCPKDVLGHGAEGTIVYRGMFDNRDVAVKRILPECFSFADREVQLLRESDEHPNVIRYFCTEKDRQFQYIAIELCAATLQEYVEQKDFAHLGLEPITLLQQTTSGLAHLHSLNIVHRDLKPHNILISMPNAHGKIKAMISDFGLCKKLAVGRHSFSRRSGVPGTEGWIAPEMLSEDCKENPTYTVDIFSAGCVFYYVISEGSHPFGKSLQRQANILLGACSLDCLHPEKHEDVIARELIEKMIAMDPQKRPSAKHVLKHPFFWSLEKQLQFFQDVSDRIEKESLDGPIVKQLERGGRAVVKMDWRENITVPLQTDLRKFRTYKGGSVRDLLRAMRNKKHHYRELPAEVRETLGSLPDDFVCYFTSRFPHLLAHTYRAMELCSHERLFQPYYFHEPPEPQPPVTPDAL
Sequence of Mitogen-activated protein kinase kinase kinase 1 (Homo sapiens) (Q13233 whole entry): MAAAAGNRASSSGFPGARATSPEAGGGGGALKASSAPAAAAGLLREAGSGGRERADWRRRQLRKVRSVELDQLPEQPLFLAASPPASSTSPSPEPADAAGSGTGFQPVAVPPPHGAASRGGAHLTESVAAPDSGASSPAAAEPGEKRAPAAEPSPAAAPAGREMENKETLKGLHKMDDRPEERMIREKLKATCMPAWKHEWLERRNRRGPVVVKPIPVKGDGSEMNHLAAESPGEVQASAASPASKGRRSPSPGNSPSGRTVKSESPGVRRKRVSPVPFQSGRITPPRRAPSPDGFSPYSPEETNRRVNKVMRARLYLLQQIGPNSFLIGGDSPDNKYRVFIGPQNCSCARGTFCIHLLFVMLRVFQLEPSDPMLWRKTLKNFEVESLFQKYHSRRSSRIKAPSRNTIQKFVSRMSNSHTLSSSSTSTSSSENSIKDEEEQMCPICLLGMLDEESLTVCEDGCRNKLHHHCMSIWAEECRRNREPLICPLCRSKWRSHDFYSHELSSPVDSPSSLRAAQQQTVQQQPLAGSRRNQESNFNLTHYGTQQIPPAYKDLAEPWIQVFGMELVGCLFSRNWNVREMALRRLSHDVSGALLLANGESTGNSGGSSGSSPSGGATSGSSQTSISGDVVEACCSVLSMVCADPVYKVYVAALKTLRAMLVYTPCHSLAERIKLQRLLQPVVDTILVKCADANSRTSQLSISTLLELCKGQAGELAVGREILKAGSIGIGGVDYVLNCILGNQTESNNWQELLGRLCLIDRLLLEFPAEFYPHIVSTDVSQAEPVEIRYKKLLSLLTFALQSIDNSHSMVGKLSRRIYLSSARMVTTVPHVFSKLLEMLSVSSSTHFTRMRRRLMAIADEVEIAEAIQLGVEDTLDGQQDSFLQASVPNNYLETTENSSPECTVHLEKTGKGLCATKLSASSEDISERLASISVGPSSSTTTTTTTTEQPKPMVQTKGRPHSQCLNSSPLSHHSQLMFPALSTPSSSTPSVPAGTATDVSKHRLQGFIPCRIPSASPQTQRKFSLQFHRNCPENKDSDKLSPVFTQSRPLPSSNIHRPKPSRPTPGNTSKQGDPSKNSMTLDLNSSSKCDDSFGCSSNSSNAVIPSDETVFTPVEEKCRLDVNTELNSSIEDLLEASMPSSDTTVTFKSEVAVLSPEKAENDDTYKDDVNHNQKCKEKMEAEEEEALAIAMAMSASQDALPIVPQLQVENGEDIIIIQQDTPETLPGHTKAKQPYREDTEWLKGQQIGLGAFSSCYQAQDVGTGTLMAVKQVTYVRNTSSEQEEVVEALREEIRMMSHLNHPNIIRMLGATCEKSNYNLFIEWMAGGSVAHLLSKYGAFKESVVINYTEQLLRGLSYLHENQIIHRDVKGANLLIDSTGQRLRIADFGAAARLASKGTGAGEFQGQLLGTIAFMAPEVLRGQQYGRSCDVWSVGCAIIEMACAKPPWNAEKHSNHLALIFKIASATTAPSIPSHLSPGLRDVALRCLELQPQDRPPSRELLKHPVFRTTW

In general, inhibition refers to the relative decrease from the control value, in per cent. For `CC(C)n1cc(-c2cc(-c3ccc(CN4CCOCC4)cc3)cnc2N)nn1`, the inhibition in assay [1] was 0.5%; in assay [2], 9.7%; in assay [3], 29.2%; in assay [4] it was -8%; in assay [5], -2.3%; in assay [6], 29.6%. Moreover, the inhibition in [7] is 26.6%; in [8], 10.3%; in assay [9] it was -0.5%.
